Test results taken from PubChem BioAssay AID2305 (GlaxoSmithKline (GSK), 2010).

System: P. falciparum 3D7 growth, pLDH absorbance
Assay: blood-stage malaria parasite growth potency – strain 3D7, dose response (AID 2305)

CC(=O)Nc1ccc(S(=O)(=O)Nc2ccc(Nc3nc(C)cc(N4CCCCC4)n3)cc2)cc1
IC50: 780 nM

CCCNCc1ccc(-c2ccc(CN(CCOC)C(=O)c3cccc(C#N)c3)cc2)nc1
IC50: 1230 nM

CCN(CC)CCNC(=O)c1ccc(NC(=O)c2cc3c(C)nn(-c4ccc(Cl)cc4)c3s2)cc1
IC50: 250 nM

CCN(CC)CCNc1ccnc2[nH]c3ccc(C)cc3c12
IC50: 670 nM

CC(c1cccc(Nc2nccc(-c3c(-c4cccc(NC(=O)c5c(F)cccc5F)c4)nn4ncccc34)n2)c1)S(C)(=O)=O (stereo not given)
IC50: 50 nM

N#Cc1ccc(N2CCN(Cc3ccc(-c4ccc(-c5nc6ccc(C(F)(F)F)cc6[nH]5)s4)cc3)CC2)nc1
IC50: 810 nM

CCn1cc2c3c(cc(C(=O)N[C@@H](Cc4ccccc4)[C@H](O)CNC4CCOCC4)cc31)N(C)S(=O)(=O)CC2
IC50: 210 nM

Oc1ccc2ccccc2c1C=NNc1nc(Nc2ccccc2)nc(N2CCOCC2)n1
IC50: 890 nM

CC(C)CN(Cc1c(O)ccc2[nH]c(-c3ccc(F)cc3F)nc12)CC(C)C
IC50: 800 nM

O=C(/C=C/c1ccc(Cl)c(Cl)c1)NCCCCN1CCCN(C(=O)Nc2ccc(C(F)(F)F)cc2)CC1
IC50: 850 nM

CCCN1CCN(CCCNC(=O)c2cc3c(Cl)nc4ccc(C)cc4c3s2)CC1
IC50: 800 nM

CCOc1ccccc1N1CCN(CCCNC(=O)/C(=C/C=C/c2cc3cc(Cl)c(Cl)cc3[nH]2)OC)CC1
IC50: 850 nM

CCCNCc1ccc(-c2ccc(CN(CCOC)C(=O)CCc3ccc(OC)cc3)cc2)nc1
IC50: 980 nM

FC(F)(F)c1ccc(-c2ccc(CNC3CCN(CCN4CCOCC4)CC3)cc2)cc1
IC50: 760 nM

Cc1[nH]c(C)c([N+](=O)[O-])c(=O)c1-c1ccc(Oc2ccc(OC(F)(F)F)cc2)cc1
IC50: 250 nM

CCOC(=O)c1ccc(Nc2cc(Nc3ccc(C(=O)OCC)cc3)nc(C)n2)cc1
IC50: 910 nM

O=C(NCc1cccs1)[C@H](Cc1ccccc1)Nc1ccnc(NCC2CCCCC2)n1
IC50: 1050 nM

N#Cc1ccc(NC(=O)Nc2ccc3c(c2)CCN(C2CCC2)CC3)cc1
IC50: 630 nM

COc1ccc(C(O)CNC(C)CCc2ccc(F)cc2)cc1C(F)(F)F (stereo not given)
IC50: 750 nM

Cn1c(CN2CCC(N3CCc4cc(NC(=O)c5ccco5)ccc43)C2)cc2ccccc21 (stereo not given)
IC50: 880 nM

O=C1CSc2ccc(CNC3CCN(CCc4c(F)cnc5ccc(F)cc45)CC3)nc2N1
IC50: 520 nM

CC(=O)Oc1c(Br)c(C)nc(C)c1-c1ccc(Oc2ccc(OC(F)(F)F)cc2)cc1
IC50: 130 nM

CN(C(=O)Cc1ccc(Cl)cc1)C1CCN(CCCCCNC(=O)/C=C/c2ccc(Cl)c(Cl)c2)CC1
IC50: 720 nM

CCCc1cc(Cc2cnc(N)nc2N)ccc1OCCCCCC(=O)O
IC50: 580 nM

CNCCNCc1cccc(-c2ccc(-c3nc4c(C)cccc4[nH]3)s2)c1
IC50: 950 nM

COc1ccc2nc(NC3=NC4(c5ccccc5)N=C(Nc5nc6ccc(OC)cc6[nH]5)NC4(c4ccccc4)N3)[nH]c2c1 (stereo not given)
IC50: 200 nM

COc1cc(F)c2ncc(F)c([C@@H](O)CN3CCC(NCc4cc5c(cn4)OCCO5)CC3)c2c1
IC50: 480 nM

Cc1[nH]c(C)c(-c2ccc(-c3cccc(Cl)c3)nc2)c(=O)c1Br
IC50: 320 nM

Cc1cc(OCCCN2CCN(CCN3CCOCC3)CC2)ccc1NC(=O)COc1ccc(Cl)cc1C(=O)c1cc(Cl)cc(C#N)c1
IC50: 700 nM

CNS(=O)(=O)CCNCc1ccc(-c2ccc3ncnc(Nc4ccc(OCc5ccccc5)cc4)c3c2)o1
IC50: 730 nM

Cc1cccc(NC(=O)NCc2ccccc2)n1
IC50: 940 nM

Cc1cc2nc(-c3cc(-c4cccc(NS(C)(=O)=O)c4)cnc3N)[nH]c2cc1C
IC50: 670 nM

CCc1cc2c(cc1OCCN(C)C)N(C(=O)Nc1ccc(-c3ccncc3)c(Cl)c1)CC2
IC50: 840 nM

COC(=O)c1cccc(CNCc2ccc(-c3ccc(-c4nc5ccc(C(F)(F)F)cc5[nH]4)s3)cc2)c1
IC50: 160 nM

CN1CCN(CC(O)CNC(=O)Nc2ccc(Cl)cc2)CC1 (stereo not given)
IC50: 230 nM

Clc1ccc(CNCCCCCCNCc2ccc(Cl)cc2)cc1
IC50: 850 nM

O=C(Nc1cccc(-c2cccc(-c3ccc(F)cc3)n2)c1)c1ccc([N+](=O)[O-])o1
IC50: 360 nM

Cc1cc(N2CCCC2)nc(Nc2ccc(NC(=O)C(C)(C)C)cc2)n1
IC50: 1070 nM

CN1CCN(c2nsc3ccc(-c4ccc(OCCN5CCCC5)cc4)cc23)CC1
IC50: 830 nM

Cc1cc(-c2ccc3c(c2)CCN(CCC2CCC(NC(=O)/C=C/c4ccccc4F)CC2)CC3)on1 (stereo not given)
IC50: 810 nM

FC(F)(F)c1ccc2nc(-c3ccc(-c4ccc(CN5CCN(c6ccncc6)CC5)cc4)cc3)[nH]c2c1
IC50: 60 nM

CO/C(=C\C=C\c1cc2cc(Cl)c(Cl)cc2[nH]1)C(=O)NCCCNC12CC3CC(CC(C3)C1)C2
IC50: 730 nM

COc1ccc(CN(C)CC(O)COc2ccc(NC(=O)c3cccc4c(=O)c5cccc(OC)c5[nH]c34)cc2)cc1OC (stereo not given)
IC50: 780 nM

Cc1ccc2c(OCCN3CCC(Cc4cc5c(cc4F)OCC(=O)N5)CC3)cc(F)cc2n1
IC50: 630 nM

CCCCCNc1nc(Nc2ccccc2C)nc2ccccc12
IC50: 740 nM

CC1(C)CCCN(c2ncc(-c3cccc(CNCc4ccccc4O)c3)cn2)C1
IC50: 890 nM

O=C(NC1CCN(CCC(NC(=O)c2ccccc2)c2ccc(Cl)c(Cl)c2)CC1)c1ccc(Cl)cc1 (stereo not given)
IC50: 1070 nM

CN(C)CCCOc1ccc(-c2csc(NC(N)=NCc3ccccc3)n2)cc1
IC50: 280 nM

CCNc1cc(C(=O)N[C@@H](Cc2ccccc2)[C@H](O)CNC(C)(C)Cc2cccc(OC)c2)cc(N2CCCC2=O)c1
IC50: 710 nM

CN1CCCC1CCNc1ncc2c(-c3ccc(NC(=O)Nc4cc(C(F)(F)F)ccc4F)cc3)nn(C)c2n1 (stereo not given)
IC50: 340 nM

Cc1sc(CNCCCNc2cc(=O)c3ccccc3[nH]2)cc1Br
IC50: 760 nM

Clc1cccnc1N1CCN(c2ncccc2Cl)CC1
IC50: 150 nM

COc1cc2nc(C)nc(Nc3ccc(Oc4ccccc4)cc3)c2cc1OC
IC50: 720 nM

CC(C)C[C@H](NC(=O)OC(C)(C)C)C(=O)Nc1ccc(Cc2ccc(NC(=O)[C@H](CC(C)C)NC(=O)OC(C)(C)C)cc2)cc1
IC50: 760 nM

c1ccc2c(NCCc3cnc[nH]3)c3ccccc3nc2c1
IC50: 1040 nM

CCOc1c(OC)ccc2c1CCN(CCN1CCC(NC(=O)c3ccc(-c4cccc(C(F)(F)F)c4C(F)(F)F)cc3)CC1)C2
IC50: 730 nM

CCN1CCN(Cc2ccc3nc(-c4cc(C)n(Cc5cc(Cl)ccc5OCc5ccccc5)n4)[nH]c3c2)CC1
IC50: 770 nM

N#Cc1ccc2c(c1)CCN(CCC1CCC(Nc3ncnc4ccccc34)CC1)C2 (stereo not given)
IC50: 630 nM

Oc1ccc(CCNc2nc(NCc3ccc4cc(Cl)ccc4c3)nc(N3CCNCC3)n2)cc1
IC50: 1020 nM

COc1ccc(CCC(C)N2C[C@@H](N)[C@H](c3cn(C)c4cnccc34)C2)cc1 (stereo not given in full)
IC50: 1360 nM

CO/C(=C\C=C\c1cc2cc(Cl)c(Cl)cc2[nH]1)C(=O)NCCCN1CCN(c2ccc(OC)cc2)CC1
IC50: 700 nM

Cc1cc(F)ccc1C1CCN(CCCCNC(=O)c2ccc(NC(=O)c3ccc(Cl)cc3)cc2)CC1
IC50: 690 nM

CCn1c(-c2nonc2N)nc2c(-c3cccc(NC(=O)Nc4ccc(C#N)cc4)c3)ncc(OCCCN)c21
IC50: 1510 nM

C#CCN1CCC2=C(C1)c1c(O)cc(C(C)CCCc3ccc(F)cc3)cc1OC2(C)C (stereo not given)
IC50: 730 nM

CC[C@H](NC(=O)c1ccc(NC(=O)OC(C)(C)C)cc1)C(=O)N[C@@H](CO)C(=O)NCCCCc1ccccc1
IC50: 830 nM

CNC(=O)/C=C/c1cc(NC(=O)Nc2cc(C)nc3c(F)cccc23)ccc1OC
IC50: 910 nM

Cc1noc(-c2ccc(O)cc2O)c1-c1ccc2c(c1)OCCCO2
IC50: 890 nM

c1ccc(CN2CCC(NCc3ccccc3-c3ccc(CNC4CCCC4)cc3)CC2)cc1
IC50: 910 nM

Cc1cccc2[nH]c(-c3cccc(-c4cccc(CN5CCN(c6ccc(C#N)cn6)CC5)c4)c3)nc12
IC50: 1160 nM

Cc1[nH]c2ccccc2c1C=NNc1nc(Nc2ccccc2)nc(Nc2ccccc2)n1
IC50: 930 nM

NC1=NC(c2ccccc2)(c2ccccc2)C(=O)N1Cc1ccccc1Br
IC50: 860 nM

Cc1cc(OCCN2CCCCC2)ccc1NC(=O)c1cccc2c(=O)n(Cc3ccc(Cl)cc3)cnc12
IC50: 1060 nM

CC(=O)Nc1ccc(CN2CCC(NC(=O)c3ccc(-c4cccc(C(F)(F)F)c4)s3)CC2)cc1
IC50: 890 nM

CC(NC(=O)c1ccc(O)c(-c2ccc(Cl)c(Cl)c2)c1)C(=O)NCCN1CCOCC1 (stereo not given)
IC50: 960 nM

O=[N+]([O-])c1ccc(C(O)CNCCc2ccccc2)cc1OCc1ccccc1 (stereo not given)
IC50: 910 nM

COc1c(C(=O)NC2CCN(Cc3ccccc3)C2)cnc2ccccc12 (stereo not given)
IC50: 960 nM

O=C(N[C@@H](Cc1ccccc1)[C@H](O)CNCCC(F)(F)F)c1cccc(CCC2CC2)c1
IC50: 1020 nM

O=C(NCC1CCC(CNCCc2ccccc2)CC1)Nc1ccc(Cl)c(Cl)c1 (stereo not given)
IC50: 740 nM

CC1CN=C(c2ccc(NC(=O)c3ccc(C(=O)Nc4ccc(C5=NCC(C)N5)cc4)cc3)cc2)N1 (stereo not given)
IC50: 30 nM

N=c1n(CCN2CCCCC2)c2ccccc2n1CC(=O)c1cccc([N+](=O)[O-])c1
IC50: 880 nM

CC1CN(Cc2csc(Nc3ccccc3)n2)CC(C)O1 (stereo not given)
IC50: 1020 nM

CCc1c(C)c2ccc3c(c2oc1=O)CN(CCc1ccc(F)cc1)CO3
IC50: 1230 nM

CC(=O)Nc1ccc(C(=O)Nc2ccc(-c3cccc(-c4nc5ccc(C(F)(F)F)cc5[nH]4)c3)cc2)cn1
IC50: 110 nM

COc1cc2nc(N(C)CC3COc4ccccc4O3)nc(N)c2cc1OC (stereo not given)
IC50: 1550 nM

COc1cc(C)nc2ccc(NC(=O)c3cc([N+](=O)[O-])cc([N+](=O)[O-])c3)cc12
IC50: 390 nM

CCN(CC)CCN(Cc1ccc(-c2ccc(C(F)(F)F)cc2)cc1)C(=O)Cn1cc(CCCc2cccc(F)c2F)c(=O)c2ccccc21
IC50: 1060 nM

Clc1ccc2nc(-c3cccnc3)[nH]c2c1
IC50: 40 nM

Cc1cc(N[C@@H](Cc2ccccc2)C(=O)NC2CCCC2)nc(NCCc2cccs2)n1
IC50: 1400 nM

O[C@@H](c1ccc2ccccc2c1)[C@@H]1CN(CCc2ccccc2)CC[C@@]1(O)c1ccccc1
IC50: 550 nM

CCc1c[nH]c2c(N3CCCCC3=O)cc(C(=O)N[C@@H](Cc3ccccc3)[C@H](O)CNCc3cccc(OC)c3)cc12
IC50: 170 nM

COc1cccc(CN(C(=O)Nc2ccccc2F)[C@H]2C[C@H]3C(=O)Nc4cc(F)ccc4C(=O)N3C2)c1
IC50: 840 nM

O=C(NCCc1ccccc1F)c1ccc(N2CCN(c3ccncc3)CC2)cn1
IC50: 1080 nM

Cc1cc(O)c(C(C)C)cc1C1(c2cc(C(C)C)c(O)cc2C)OC(=O)c2ccccc21
IC50: 870 nM

Cc1onc(-c2ccc(Cl)cc2)c1-c1ccnn1S(=O)(=O)c1ccc(Cl)cc1
IC50: 710 nM

Cc1cc(NCC(c2ccccc2)c2ccccc2)nc(NCc2ccc(C(F)(F)F)cc2)n1
IC50: 250 nM
